# Reference: patent US20150183802A1, “TRICYCLIC SULFONAMIDE DERIVATIVES” (NOVARTIS AG, priority 2013, published 2015)
# Molecular target: T1, hNav1.7 channels (Homo sapiens, UniProt Q15858)
# T1 construct: host or cells: HEK293
# Test: hNav1.7 channel in vitro patch-clamp assay
# Type: cell-based
# Details: stable HEK293 cell line expressing hNav1.7; whole cell patch-clamp (QPatch HTX and/or conventional), room temperature; voltage protocol not given
# Protocol: hNav1.7 Channel In Vitro Patch-Clamp Assay
# Cells: Sable HEK293 (human embryonic kidney) cell line expressing hNav1.7 channels was used in the assay. The cell line was obtained from Millipore (Millipore Corporation, MA).
# Patch-clamp recordings: The recordings were performed on QPatch HTX (Sophion Bioscience, Denmark) and/or conventional patch-clamp (Axon Multiclamp 700B systems, Molecular Devices, CA) platforms at room temperature, using whole cell patch-clamp techniques. The composition of extracellular solution was (in mM): HEPES 5, NaCl 40, KCl 3, CaCl2 1, MgCl2 1, Choline Chloride 100. Adjust pH to 7.2 with 1N NaOH, osmolarity to 300-310 mOsm with sucrose. The composition of intracellular solution was (in mM): HEPES 10, NaCl 10, Na2ATP 1, MgCl2 2, KF 135, EGTA 10. Adjust pH to 7.2 with 1N NaOH, osmolarity to 290-300 mOsm with sucrose.
# For conventional patch-clamp, 35 mm culture dishes containing hNav1.7 cells were placed on the stage of an inverted microscope and continuously perfused with extracellular solution from a perfusion system (Biologic Rapid solution changer, RSC-160, ˜1 ml/min). […] The recordings were controlled by pCLAMP10 software. Test compounds were dissolved in 100% DMSO to make stock solutions for each test concentration, and then diluted into extracellular solution to achieve final concentration for testing. Final DMSO concentration was less than 0.3%. Two voltage protocols were used in hNav1.7 assay: for non-inactivated protocol, the sodium currents were elicited by a 2 ms pulse to −10 mV from a holding potential of −110 mV. For inactivated protocol, the holding potential was set at V1/2. The voltage was firstly stepped to −110 mV for 50 ms, then to −10 mV for 2 ms and then stepped back to holding potential. In both protocols the voltage command was given in every 10 s. Compound effect (% inhibition) was determined by difference in current amplitude before and after the application of test compounds. IC50 values were determined from concentration-response curves that were obtained with Hill fitting.
# For QPatch HTX assay, hNav1.7 cells grown to 50%-80% confluence were rinsed with DPBS and dissociated with Tryple (Invitrogen, 12605-010). The dissociated cells were then mixed with extracellular solution. After centrifuge, the cells were resuspended in extracellular solution and used in the QPatch experiment. The whole-cell protocols, voltage protocols and application protocols were established with QPatch Assay Software 3.4 (Sophion Bioscience, Denmark). Only the inactivated protocol was used in the QPatch assay.
# T1 sequence (Q15858 whole entry): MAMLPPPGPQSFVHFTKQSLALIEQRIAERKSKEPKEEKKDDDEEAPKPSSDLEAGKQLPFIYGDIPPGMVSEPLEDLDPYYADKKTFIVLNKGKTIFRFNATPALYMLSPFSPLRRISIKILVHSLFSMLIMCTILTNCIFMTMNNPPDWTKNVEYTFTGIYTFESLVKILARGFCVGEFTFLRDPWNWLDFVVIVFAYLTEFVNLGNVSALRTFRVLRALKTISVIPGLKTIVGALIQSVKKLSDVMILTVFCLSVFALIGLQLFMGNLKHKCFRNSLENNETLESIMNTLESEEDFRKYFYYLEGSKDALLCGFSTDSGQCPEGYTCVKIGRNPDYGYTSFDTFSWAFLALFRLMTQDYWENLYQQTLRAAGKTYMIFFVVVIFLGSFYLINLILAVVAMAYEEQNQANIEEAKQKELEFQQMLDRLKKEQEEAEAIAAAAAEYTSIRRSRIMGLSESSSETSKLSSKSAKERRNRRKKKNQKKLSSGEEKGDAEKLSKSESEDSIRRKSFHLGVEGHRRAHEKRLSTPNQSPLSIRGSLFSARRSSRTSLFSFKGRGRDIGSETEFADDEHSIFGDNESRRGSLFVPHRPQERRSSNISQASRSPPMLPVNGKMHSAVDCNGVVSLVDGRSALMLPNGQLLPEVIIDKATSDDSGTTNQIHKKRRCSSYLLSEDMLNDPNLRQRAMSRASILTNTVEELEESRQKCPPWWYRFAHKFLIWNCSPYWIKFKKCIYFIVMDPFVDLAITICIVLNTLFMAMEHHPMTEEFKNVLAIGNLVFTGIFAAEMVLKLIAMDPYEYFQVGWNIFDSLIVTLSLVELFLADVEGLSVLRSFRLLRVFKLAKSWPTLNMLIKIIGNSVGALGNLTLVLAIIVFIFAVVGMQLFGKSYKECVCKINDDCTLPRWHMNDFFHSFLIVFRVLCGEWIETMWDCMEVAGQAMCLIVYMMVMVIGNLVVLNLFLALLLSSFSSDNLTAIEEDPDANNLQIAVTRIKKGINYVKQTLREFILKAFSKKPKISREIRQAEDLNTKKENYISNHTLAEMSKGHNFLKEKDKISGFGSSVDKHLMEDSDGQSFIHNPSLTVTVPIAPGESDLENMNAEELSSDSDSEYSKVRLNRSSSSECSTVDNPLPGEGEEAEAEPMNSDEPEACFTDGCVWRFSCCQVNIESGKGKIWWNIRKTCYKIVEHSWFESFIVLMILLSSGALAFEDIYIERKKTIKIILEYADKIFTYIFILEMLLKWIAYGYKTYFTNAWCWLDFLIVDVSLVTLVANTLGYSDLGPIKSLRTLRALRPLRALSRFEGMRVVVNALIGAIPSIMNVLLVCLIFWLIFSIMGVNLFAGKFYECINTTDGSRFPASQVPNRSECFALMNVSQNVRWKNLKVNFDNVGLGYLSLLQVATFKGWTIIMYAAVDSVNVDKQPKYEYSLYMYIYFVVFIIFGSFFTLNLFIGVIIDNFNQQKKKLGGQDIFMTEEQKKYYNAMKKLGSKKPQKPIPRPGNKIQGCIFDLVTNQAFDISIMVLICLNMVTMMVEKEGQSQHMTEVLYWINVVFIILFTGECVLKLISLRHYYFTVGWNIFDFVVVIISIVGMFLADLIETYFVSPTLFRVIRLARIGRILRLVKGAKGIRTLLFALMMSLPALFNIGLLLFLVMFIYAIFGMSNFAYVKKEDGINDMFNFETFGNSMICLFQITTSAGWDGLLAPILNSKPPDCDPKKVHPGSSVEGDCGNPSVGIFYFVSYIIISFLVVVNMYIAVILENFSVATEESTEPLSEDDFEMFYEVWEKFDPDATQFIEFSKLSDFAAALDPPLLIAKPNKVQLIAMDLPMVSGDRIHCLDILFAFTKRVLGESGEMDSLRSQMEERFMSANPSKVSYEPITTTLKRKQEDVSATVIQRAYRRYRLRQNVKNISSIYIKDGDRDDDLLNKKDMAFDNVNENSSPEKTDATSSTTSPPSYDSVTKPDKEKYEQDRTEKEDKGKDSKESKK
row,SMILES,IC50
1,"CC(C)COc1ncc(N2C(=O)C3(CC3)c3cc4c(NS(C)(=O)=O)noc4cc32)cc1Cl [Example 1, N-(7′-(5-chloro-6-isobutoxypyridin-3-yl)-6′-oxo-6′,7′-dihydrospiro[cyclopropane-1,5′-isoxazolo[4,5-f]indol]-3′-yl)methanesulfonamide]",150 nM
2,"CC(C)COc1ncc(N2C(=O)C3(CC3)c3cc4c(NS(=O)(=O)C5CC5)noc4cc32)cc1Cl [Example 2, N-(7′-(5-chloro-6-isobutoxypyridin-3-yl)-6′-oxo-6′,7′-dihydrospiro[cyclopropane-1,5′-isoxazolo[4,5-f]indol]-3′-yl)cyclopropanesulfonamide]",80 nM
3,"CC(C)COc1ncc(N2C(=O)C3(CC3)c3cc4c(NS(=O)(=O)C(C)C)noc4cc32)cc1Cl [Example 3, N-(7′-(5-chloro-6-isobutoxypyridin-3-yl)-6′-oxo-6′,7′-dihydrospiro[cyclopropane-1,5′-isoxazolo[4,5-f]indol]-3′-yl)propane-2-sulfonamide]",100 nM
4,"CCS(=O)(=O)Nc1noc2cc3c(cc12)C1(CC1)C(=O)N3c1cnc(OCC(C)C)c(Cl)c1 [Example 4, N-(7′-(5-chloro-6-isobutoxypyridin-3-yl)-6′-oxo-6′,7′-dihydrospiro[cyclopropane-1,5′-isoxazolo[4,5-f]indol]-3′-yl)ethanesulfonamide]",100 nM
5,"CC(C)COc1ncc(N2C(=O)C3(CC3)c3cc4c(NS(=O)(=O)C(F)(F)F)noc4cc32)cc1Cl [Example 5, N-(7′-(5-chloro-6-isobutoxypyridin-3-yl)-6′-oxo-6′,7′-dihydrospiro[cyclopropane-1,5′-isoxazolo[4,5-f]indol]-3′-yl)-1,1,1-trifluoromethanesulfonamide]",430 nM
6,"CC(C)COc1ncc(N2C(=O)C3(CC3)c3cc4c(NS(=O)(=O)c5ccccc5)noc4cc32)cc1Cl [Example 6, N-(7′-(5-chloro-6-isobutoxypyridin-3-yl)-6′-oxo-6′,7′-dihydrospiro[cyclopropane-1,5′-isoxazolo[4,5-f]indol]-3′-yl)benzenesulfonamide]",3000 nM
7,"CC(C)COc1ncc(N2C(=O)C3(CC3)c3cc4c(NS(=O)(=O)c5cccs5)noc4cc32)cc1Cl [Example 7, N-(7′-(5-chloro-6-isobutoxypyridin-3-yl)-6′-oxo-6′,7′-dihydrospiro[cyclopropane-1,5′-isoxazolo[4,5-f]indol]-3′-yl)thiophene-2-sulfonamide]",500 nM
8,"CC(C)COc1ncc(N2C(=O)C3(CC3)c3cc4c(NS(N)(=O)=O)noc4cc32)cc1Cl [Example 8, N-(7′-(5-chloro-6-isobutoxypyridin-3-yl)-6′-oxo-6′,7′-dihydrospiro[cyclopropane-1,5′-isoxazolo[4,5-f]indol]-3′-yl)aminosulfonamide]",2000 nM
9,"CC(C)COc1ncc(N2C(=O)C3(CC3)c3cc4c(NS(=O)(=O)N(C)C)noc4cc32)cc1Cl [Example 9, N-(7′-(5-chloro-6-isobutoxypyridin-3-yl)-6′-oxo-6′,7′-dihydrospiro[cyclopropane-1,5′-isoxazolo[4,5-f]indol]-3′-yl)dimethylamino-1-sulfonamide]",1230 nM
10,"CC(C)COc1ncc(N2C(=O)C3(CC3)c3cc4c(NS(=O)(=O)N5CCCC5)noc4cc32)cc1Cl [Example 10, N-(7′-(5-chloro-6-isobutoxypyridin-3-yl)-6′-oxo-6′,7′-dihydrospiro[cyclopropane-1,5′-isoxazolo[4,5-f]indol]-3′-yl)pyrrolidine-1-sulfonamide]",500 nM
11,"CS(=O)(=O)Nc1noc2cc3c(cc12)C1(CC1)C(=O)N3c1cnc(OCC2CCCCC2)c(Cl)c1 [Example 11, N-(7′-(5-chloro-6-(cyclohexylmethoxy)pyridin-3-yl)-6′-oxo-6′,7′-dihydrospiro[cyclopropane-1,5′-isoxazolo[4,5-f]indol]-3′-yl)methanesulfonamide]",100 nM
12,"CS(=O)(=O)Nc1noc2cc3c(cc12)C1(CC1)C(=O)N3c1cnc(OCC2CCOCC2)c(Cl)c1 [Example 12, N-(7′-(5-chloro-6-((tetrahydro-2H-pyran-4-yl)methoxy)pyridin-3-yl)-6′-oxo-6′,7′-dihydrospiro[cyclopropane-1,5′-isoxazolo[4,5-f]indol]-3′-yl)methanesulfonamide]",2000 nM
13,"CS(=O)(=O)Nc1noc2cc3c(cc12)C1(CC1)C(=O)N3c1cnc(OCC2CCC(F)(F)CC2)c(Cl)c1 [Example 13, N-(7′-(5-chloro-6-((4,4-difluorocyclohexyl)methoxy)pyridin-3-yl)-6′-oxo-6′,7′-dihydrospiro[cyclopropane-1,5′-isoxazolo[4,5-f]indol]-3′-yl)methanesulfonamide]",300 nM
14,"CS(=O)(=O)Nc1noc2cc3c(cc12)C1(CC1)C(=O)N3c1cnc(OCC2CCC(C(F)(F)F)CC2)c(Cl)c1 (centres unmarked) [Example 14, N-(7′-(5-chloro-6-((4-(trifluoromethyl)cyclohexyl)methoxy)pyridin-3-yl)-6′-oxo-6′,7′-dihydrospiro[cyclopropane-1,5′-isoxazolo[4,5-f]indol]-3′-yl)methanesulfonamide]",200 nM
15,"CC1(COc2ncc(N3C(=O)C4(CC4)c4cc5c(NS(C)(=O)=O)noc5cc43)cc2Cl)CC1 [Example 15, N-(7′-(5-chloro-6-((1-methylcyclopropyl)methoxy)pyridin-3-yl)-6′-oxo-6′,7′-dihydrospiro[cyclopropane-1,5′-isoxazolo[4,5-f]indol]-3′-yl) methanesulfonamide]",70 nM
16,"CC1(COc2ncc(N3C(=O)C4(CC4)c4cc5c(NS(=O)(=O)C6CC6)noc5cc43)cc2Cl)CC1 [Example 16, N-(7′-(5-chloro-6-((1-methylcyclopropyl)methoxy)pyridin-3-yl)-6′-oxo-6′,7′-dihydrospiro[cyclopropane-1,5′-isoxazolo[4,5-f]indol]-3′-yl)cyclopropanesulfonamide]",60 nM
17,"O=C1N(c2cnc(OCCCC(F)(F)F)c(Cl)c2)c2cc3onc(NS(=O)(=O)C4CC4)c3cc2C12CC2 [Example 17, N-(7′-(5-chloro-6-(4,4,4-trifluorobutoxyl)pyridin-3-yl)-6′-oxo-6′,7′-dihydrospiro[cyclopropane-1,5′-isoxazolo[4,5-f]indol]-3′-yl)cyclopropanesulfonamide]",200 nM
18,"C[C@H](Oc1ncc(N2C(=O)C3(CC3)c3cc4c(NS(=O)(=O)C5CC5)noc4cc32)cc1Cl)c1ccc(F)cc1 [Example 18, (S)—N-(7′-(5-chloro-6-(1-(4-fluorophenyl)ethoxy)pyridin-3-yl)-6′-oxo-6′,7′-dihydrospiro[cyclopropane-1,5′-isoxazolo[4,5-f]indol]-3′-yl)cyclopropanesulfonamide]",100 nM
19,"O=C1N(c2cnc(OC3CC(F)(F)C3)c(Cl)c2)c2cc3onc(NS(=O)(=O)C4CC4)c3cc2C12CC2 [Example 19, N-(7′-(5-chloro-6-(3,3-difluorocyclobutoxyl)pyridin-3-yl)-6′-oxo-6′,7′-dihydrospiro[cyclopropane-1,5′-isoxazolo[4,5-f]indol]-3′-yl)cyclopropanesulfonamide]",200 nM
20,"O=C1N(c2cnc(OCC(F)(F)F)c(Cl)c2)c2cc3onc(NS(=O)(=O)C4CC4)c3cc2C12CC2 [Example 20, N-(7′-(5-chloro-6-(2,2,2-trifluoroethoxyl)pyridin-3-yl)-6′-oxo-6′,7′-dihydrospiro[cyclopropane-1,5′-isoxazolo[4,5-f]indol]-3′-yl)cyclopropanesulfonamide]",500 nM
21,"O=C1N(c2cnc(OC3CCC3)c(Cl)c2)c2cc3onc(NS(=O)(=O)C4CC4)c3cc2C12CC2 [Example 21, N-(7′-(5-chloro-6-cyclobutoxypyridin-3-yl)-6′-oxo-6′,7′-dihydrospiro[cyclopropane-1,5′-isoxazolo[4,5-f]indol]-3′-yl)cyclopropanesulfonamide]",150 nM
22,"CC(C)COc1ncc(N2C(=O)C3(CC3)c3cc4c(NS(=O)(=O)C5CC5)noc4cc32)cc1F [Example 22, N-(7′-(5-fluoro-6-isobutoxypyridin-3-yl)-6′-oxo-6′,7′-dihydrospiro[cyclopropane-1,5′-isoxazolo[4,5-f]indol]-3′-yl)cyclopropanesulfonamide]",300 nM
23,"CC1CCC(COc2ncc(N3C(=O)C4(CC4)c4cc5c(NS(=O)(=O)C6CC6)noc5cc43)cc2Cl)CC1 (centres unmarked) [Example 23, N-(7′-(5-chloro-6-((4-methylcyclohexyl)methoxy)pyridin-3-yl)-6′-oxo-6′,7′-dihydrospiro[cyclopropane-1,5′-isoxazolo[4,5-f]indol]-3′-yl)cyclopropanesulfonamide]",200 nM
